The record followed here is patent US5641751A, “Tumor necrosis factor inhibitors” (Centocor, Inc., priority 1995, dated 1997).

In this experiment the target is T1, human TNFα (Homo sapiens, UniProt P01375).
T1 construct: purchased Biosource, Camarillo, Calif
Kind of experiment: p55 Receptor/IgG fusion protein binding assay (inhibition of TNFα capture by p55-Ig coated plate). The settings on record: inhibition of binding of TNFα to p55TNFr-IgG chimeric construct. On the procedure:
This assay was designed to identify peptides which bind to human TNFα and thereby prevent the capture of the TNFα by a microtiter plate coated with p55-Ig fusion protein. A constant concentration of human TNFα is preincubated with the test peptide and then incubated on the p55-Ig coated microtiter wells. Bound TNFα is detected using a specific antisera and an alkaline phosphatase-conjugated probe.
A 96-well, U-bottom polyvinylchloride microtiter plate was coated with 50 μl/well of p55-Ig fusion protein at 5 μg/ml in 0.01M sodium phosphate, 0.15M sodium chloride (PBS) by incubation overnight at 4° C. or 2 hours at 37° C. The fusion protein, which consists of a p55 TNF receptor protein portion and an IgG portion, can be produced as disclosed in U.S. application Ser. No. 08/010,406 filed Jan. 29, 1993 which is incorporated herein by reference. The plate was washed three times with 0.05% Tween-20 in PBS, then blocked, by adding 150 μl/well of assay buffer (10 mM N-2-hydroxyethylpiperazine-N'-[…] (HEPES) pH 7.2, containing 0.1% porcine gelatin, 0.1% Tween-80, and 0.01% sodium azide) and continuing incubation for 1 hour at 37° C. or at 4° C. for 1-7 days.
Lyophilized peptides to be tested were weighed in tared 12×75 mm polystyrene tubes and reconstituted to a concentration of 1.2 mM with assay buffer. Each suspension was sonicated in a water bath for 1-5 minutes and vortexed 15-30 seconds to disperse large particles. Serial dilutions of each peptide suspension were prepared using assay buffer in a 96-well polystyrene microtiter plate. Additional wells received Fab fragment of the mouse/human monoclonal anti-human TNFα antibody cA2 (positive control) or assay buffer (negative control). […] The polystyrene dilution plate was then sealed and incubated 1 hour at room temperature on an orbital mixer set at moderate speed.
Following the sample preincubation, blocker was discarded from the p55-Ig coated plate and blotted dry. Aliquots (50 μl) of each peptide or control were transferred into duplicate wells on the p55-Ig coated plate which was then sealed and incubated 1 hour at 37° C. Duplicate wells containing only assay buffer were included as a plate blank. After incubation the p55-Ig plate was washed three times with 0.05% Tween-20 in PBS.
To detect TNFα captured by the p55-Ig plate, all wells were incubated in succession with polyclonal rabbit anti-human TNFα (Genzyme, Boston, Mass.; 1:500 in assay buffer, 50 μl/well), biotinylated goat anti-rabbit Ig (H&L) (Vector Laboratories, Burlingame, Calif.; 1 μg/ml in assay buffer, 50 μl/well) and streptavidin-alkaline phosphatase conjugate (Pierce, Rockford, Ill.; 1 μg/ml in assay buffer, 50 μl/well). All incubations were for 1 hour at 37° C. and after each incubation the plate was washed three times with 0.05% Tween-20 in PBS. Fifty microliters of alkaline phosphatase substrate solution (alkaline buffer (Sigma, St. Louis, Mo.) diluted 1:500 in deionized water plus one 5 mg tablet of p-nitrophenyl phosphate (Sigma, St. Louis, Mo.) per 5 ml of diluted buffer) was added to all wells and incubation continued for 20 minutes at room temperature. Color development was stopped by adding to all wells 50 μl of 3N sodium hydroxide. The optical density (OD) at 405 nm was measured on a microtiter plate reader (Molecular Devices Vmax plate reader), with the plate blank wells subtracted as background. The activity of each peptide was then expressed as the percent inhibition of TNFα capture by the p55-Ig plate, relative to the amount of TNFα captured in wells containing only assay buffer (negative control), as follows:
% inhibition=100-((mean OD peptide/mean OD negative control)×100).
The inhibition of binding of TNFα to p55TNFr-IgG chimeric construct was performed as described above using several embodiments of the invention. The peptides were tested to determine the concentration necessary to inhibit TNFα by 50% (IC50) relative to TNFα activity in the absence of the peptide.

Setting [1] is: TNFα 25 ng/ml, read-out: IC50 (concentration necessary to inhibit TNFα by 50%).
Setting [2] is: highest value observed, read-out: maximum IC50 observed.
Setting [3] is: lowest value observed, read-out: minimum IC50 observed.

Where two headings read alike, the source gives them in different places. Ends that are not written are not given here.

T1 sequence (P01375 77-233 limits assumed): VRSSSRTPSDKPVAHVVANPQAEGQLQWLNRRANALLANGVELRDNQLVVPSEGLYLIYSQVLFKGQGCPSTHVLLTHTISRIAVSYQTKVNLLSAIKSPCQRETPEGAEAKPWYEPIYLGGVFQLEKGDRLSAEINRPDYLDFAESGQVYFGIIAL

With “Ac-NINPNNGGTIYNQFKFGKG-NH2 [SEQ ID NO:1]”, the IC50 runs as follows: under setting [1], 20 µM; under setting [2], 91 µM; under setting [3], 8 µM.
The like results for SASSSVSFMYA-NH2 [SEQ ID NO:4] were, in that order, 80 µM, 87 µM and 74 µM.
On the same counts, the results for Ac-VIWRGGSTDYNAAFMS-NH2 [SEQ ID NO:20] are 86 µM, 150 µM and 37 µM.
On the same counts, the results for Ac-LLIYYVSNRYTGV-NH2 [SEQ ID NO:18] are 307 µM, 829 µM and 29 µM.
For the substance Ac-LLIYYVSNRYTG-NH2 [SEQ ID NO:17], the IC50 is, setting by setting: under setting [1], 155 µM; under setting [2], 210 µM; under setting [3], 51 µM.
The like results for Ac-SASSSVSFMYW-NH2 [SEQ ID NO:2] were, in that order, 29 µM, 60 µM and 9 µM.
The like results for “SEQ ID NO:3: SEQ ID NO:3 in which the carboxy terminal tryptophan is tryptophan amide; comprises a fragment of SEQ ID NO:2 (SAASSVSFMYW-NH2)” were, in that order, 23 µM, 33 µM and 10 µM.
